Data taken from a melting point compilation (Tetko et al.; mined from patent text by program, amines drawn as free bases though some values may be those of a salt).

melting point	SMILES
133 to 140 °C	Oc1ccc2cc(COC=C3C4CC5CC(C4)CC3C5)ccc2c1
178 °C	COc1ccc(N2CCN(c3ccc(NC4=NCC(OC)S4)cc3)CC2)cc1 (configuration not stated)
78 °C	CCc1c(CN(C)S(=O)(=O)c2cccc(Cl)c2)nn(-c2ccc(Cl)cc2Cl)c1-c1ccc(Br)cc1
48 to 50 °C	Cc1cccc(-c2cc(Cl)cc3c2OC(CN=[N+]=[N-])C3)c1 (configuration not stated)
108 to 112 °C	CCc1nn2ccccc2c1C(C)=O
98 to 99 °C	CC(Oc1ccc(Cl)cc1)c1ccnc2ncnn12 (configuration not stated)
97.5 °C	CCCCCC1OCc2cc(C(=O)Oc3ccc(CCC)cc3)ccc2O1 (configuration not stated)
203 to 204 °C	CCOC(=O)c1cn(C2CC2)c2nc(N3CCC(NCC(C)=O)C3)c(F)cc2c1=O (configuration not stated)
306 °C	CNc1nc(Nc2ccc(Cl)c(Cl)c2)ncc1NC(=O)Oc1ccccc1
125 to 126 °C	COC(=O)[C@H](CC(C)C)NC(=O)[C@@H]1CSC(=O)N1
84 to 89 °C	COc1cc(C(=O)N2CCC(CCN3CCC(C(=O)c4nc5ccccc5n4Cc4ccccn4)CC3)(c3ccccc3)C2)cc(OC)c1OC (configuration not stated)
74 to 75 °C	N#CC(OC(=O)CC=Cc1ccccc1)c1ccc2ccccc2c1 (configuration not stated)
168 °C	CCCCCCOc1cc(C(=O)O)cc(N)c1C(=O)c1ccccc1
164 to 166 °C	CCc1c(Cc2ccccc2)c2ccc(OC)cc2n1CC(=O)NN
240 to 242 °C	CCCN(CCC)c1nc2ccccc2n2cnnc12
83 °C	O=C(C=Cc1c(Cl)cccc1Cl)c1ccccc1
231 to 232 °C	O=C(O)c1cc(-n2c(-c3ccc(Br)cc3)cc3c2CCCC3)ccc1O
152 to 154 °C	CCCCCCCCCC=COC1OC(CO)C(O)C(O)C1NC(C)=O (configuration not stated)
87 to 88 °C	O=C1CC(CSc2nc3ccccc3s2)C(=O)O1 (configuration not stated)
157 to 159 °C	Fc1ccc(CNc2nc(OCc3ccccc3)nc(OCc3ccccc3)n2)cc1
99 to 100 °C	COc1ccc(Cn2c(=O)c3ccccc3n(CCCCN3CCC(OC(c4ccccc4)c4ccccc4)CC3)c2=O)cc1
173 to 176 °C	CC(CCCC(C)(O)CO)C1CCC2C3CC=C4CC(O)CCC4(C)C3CCC12C (configuration not stated)
240 °C	CCNC(=O)Nc1cnc2ccc(Cl)nc2n1

melting point	SMILES
51 to 56 °C	CON(C)C(=O)c1c(COC2CCCCO2)noc1-c1ccccc1Cl (configuration not stated)
197 to 199 °C	CCCCc1nc2c(N)nc3ccccc3c2n1OC
175 to 178 °C	COC(=O)c1ccc(OC)c2oc(/C=C\C(=O)O)cc12
154 to 157 °C	Cn1nnnc1SCCCC(=O)c1ccc(C(=O)O)o1
141 to 143 °C	COc1ccc(Oc2cccc(C(=O)O)c2)cc1
132 to 135 °C	C[C@H](NC(=O)C1(C)Oc2cc([N+](=O)[O-])ccc2NC1=O)C(=O)N[C@H](CCC(=O)O)C(=O)O (some centres not stated)
> 300 °C	CCCCc1cc(-c2nnn[nH]2)ncc1C(=O)O
149 to 150 °C	CC1(C)CCC(C)(C)c2cc(CC(=O)O)ccc21
113 to 115 °C	CCC(CC)c1ccc(Cl)c2nc3n(c12)CCCCN3c1ccc(SC)cc1C
238 to 242 °C	CC(=O)Nc1cc(Oc2ccc3c(C(=O)Nc4ccc(CN5CCN(C)CC5)cc4)cccc3c2)ncn1
258 to 260 °C	COC(=O)c1ccc2c(c1)OCC(=O)N2
192 to 194 °C	COC1C(O)C(CO)OC1n1cc(C(F)(F)F)c(=O)[nH]c1=O (configuration not stated)
181 °C	Cn1c(C(F)(F)F)cc(=O)n(-c2cc(Oc3ccc[nH]c3=O)c(Cl)cc2F)c1=O
132 to 136 °C	O=C1NC(=O)C2CCCCC12 (configuration not stated)
165 to 167 °C	CCn1nnc2c(sc3nc(C)ccc32)c1=O
136 °C	CC(C)N(O)C(=O)Nc1ccc(S(C)=O)cc1 (configuration not stated)
146 °C	CC(C)c1nn2ccccc2c1S(=O)(=O)c1ccc(O)cc1
77 to 78 °C	O=C1c2ccccc2C(=O)N1CCCCOc1ccccn1
79 to 80 °C	O=C1C2CCCCC2C(=O)N1CCS (configuration not stated)
136 to 139 °C	CCCCCCCCCCCCNC1=NS(=O)(=O)N=C1NCCSCc1ccc(CN(C)C)o1
151 to 153 °C	CCCc1c(OCC(O)CSc2ccc(CC(=O)O)c(Cl)c2Cl)ccc(C(C)=O)c1O (configuration not stated)
166 to 168 °C	O=C1O[C@H](CO)CN1c1ccc(C2CCCCC2)cc1
289 °C	COc1ccc(C(=O)Nn2c(=O)[nH]c3ccccc3c2=O)cc1

melting point	SMILES
163 °C	Cc1nc2c3c(ccc2[nH]1)[C@@H](O)[C@H](O)[C@@H](c1ccccc1)O3
263 to 265 °C	CCCn1c(=O)c2c(NC)n[nH]c2n(Cc2cccc(Cl)c2)c1=O
158 to 160 °C	CCC1(CC)c2cc(I)ccc2-c2ccc(-c3nc4ccccc4s3)cc21
148 to 150 °C	Cc1cccc(CCc2c(C(C)C)nc(C(C)C)c(CO)c2-c2ccc(F)cc2)c1
242 to 245 °C	COC(=O)c1ccc(Cn2nc(O)c3ccc(NC(=O)CC4CCCC4)cc32)c(OC)c1
114 °C	CCOP(=O)(Cc1cc(C(C)(C)C)c(O)c(C(C)(C)C)c1)OCC
114 to 115 °C	CCOC(=O)Cc1ccc(NC(=O)C(CCc2ccccc2)NS(=O)(=O)c2ccc(Cl)cc2)cc1 (racemic)
116 to 118 °C	CC1CCN(c2cc(F)cc(C(=O)Nc3ccc(OCCN4CCOCC4)c4ccccc34)c2)CC1
310 to 312 °C	Cn1c2c(c3ccccc3c1=O)C(=O)c1cc3c(cc1-2)OCO3
193 to 197 °C	CSc1nn2c(Cl)cc(Cl)nc2c1S(=O)(=O)c1ccccc1
142 to 143 °C	CCCCc1nc2ccn(Cc3ccc([N+](=O)[O-])cc3)c(=O)c2n1Cc1ccc([N+](=O)[O-])cc1
187 °C	CC(=O)NC(C(=O)O)C(c1ccc(F)cc1)c1ccc(F)cc1 (configuration not stated)
153 to 154 °C	COc1cccc(-c2cnn3c(-c4cccc(NC(=O)CC(C)C)c4)ccnc23)c1
83 to 87 °C	CCCCN(C1CCCOc2c(C)cc(Cl)cc21)S(=O)(=O)CC (configuration not stated)
142 to 148 °C	CN(C)C=C(C(=O)c1ccc(Cl)cc1)c1ccccc1[N+](=O)[O-]
159 to 160 °C	Cc1cc(-n2ccc(OCCc3ccccc3)cc2=O)sc1C(=O)NCc1ccccc1
224 to 225 °C	O=C1NCC=NN1c1cc(Cl)c(Sc2ccc(Cl)cc2)c(Cl)c1
166 to 167 °C	Cc1n[nH]c(=O)c(-c2c(F)cccc2Cl)c1-c1ccc(Cl)nc1
92 to 93 °C	Cc1ccccc1C(=O)CC(C#N)C#N
130 to 131 °C	CN(C(=O)C(F)(F)F)C1Cc2ccc(C(=O)CCl)cc2C1 (configuration not stated)
58 to 59 °C	CCOC(=O)c1cncc(C#N)c1

SMILES	melting point
C[C@H]1[C@H](O)C(F)(F)C(=O)N1c1ccc(C#N)c(Cl)c1	133 to 139 °C
CC1N(C)c2cc3[nH]c(=O)cc(C(F)(F)F)c3cc2C1(C)C (configuration not stated)	248 to 249 °C
Cc1c(N)c(C(C)C)cc(Cc2cc(C(C)C)c(N)c(C)c2Cl)c1Cl	118 to 120 °C
Cc1cc(C)cc(Sc2c(C(C)C)nc(CCOC(N)=O)n2C)c1	138 to 140 °C
O=C(c1c(Cl)cccc1Cl)P(=O)(c1ccccc1)c1ccccc1	156 to 158 °C
